In patent US20220323441A1, “THERAPEUTIC FOR GOUT OR HYPERURICEMIA” (Nippon Chemiphar Co., Ltd., priority 2019, published 2022):
Where two headings read alike, the source gives them in different places.

Key:
[1] = Particle size distribution of amorphous Compound 14 (laser diffraction); assay type: physicochemical; conditions: amorphous Compound 14, spray dried; dispersed in 0.2% Aerosol OT aqueous solution
Procedure: A volume average particle size (D50) of the obtained amorphous Compound 14 was measured with a Shimadzu laser diffraction type particle size distribution measuring device SALD-2200 using a dispersion obtained by adding about 2 mg of a sample to a 0.2% Aerosol OT aqueous solution and irradiating the solution with ultrasonic waves for 30 seconds for dispersion. Shimadzu WingSALD-2200 version 1.02 software was used for data collection and analysis. […] The volume average particle size (D50) of amorphous Compound 14 obtained from the particle size distribution was 2.949 μm.

serum uric acid level [2] = assay: Example 1, action of lowering serum uric acid level in healthy adult males; assay type: in vivo
Excerpt: The effect of gradually lowering the blood uric acid level which is achieved by administering the pharmaceutical composition provided by the present invention may be confirmed, for example, when a maximum rate of decrease in a blood uric acid level on the first day of the administration ([(pre-administration uric acid level−minimum post-administration uric acid level on first day of administration)/pre-administration uric acid level]×100) is about 35% or less (for example, 1 to 35% decrease, 10 to 30% decrease, 10 to 25% decrease, 10 to 20% decrease, or 15 to 25% decrease); and/or the maximum rate of decrease in a blood uric acid level on the seventh day of the administration ([(pre-administration uric acid level−minimum post-administration uric acid level on the seventh day of administration)/pre-administration uric acid level]×100) is about 55% or less (for example, 1 to 55% decrease, 10 to 50% decrease, 15 to 45% decrease, 20 to 45% decrease, 20 to 40% decrease, or 20 to 35% decrease), the maximum rates of decrease being determined by continuously administering the pharmaceutical composition provided by the present invention to a healthy adult (for example, a male) for 7 days and measuring the blood uric acid levels before and after the administration.
The blood uric acid level (blood uric acid concentration) may be measured by a known uricase-peroxidase method.
80 mg of Compound 14 was repeatedly administered to 6 healthy adult males once daily for 7 days using solid dispersion capsules of Formulation Example 1, and the action of lowering a serum uric acid level was examined. For comparative reference, the results are shown in FIG. 9 together with the result of a case described in Non Patent Literature 3 in which febuxostat (40 mg) was used.

serum uric acid level [3] = conditions: febuxostat 40 mg; about 15 hours after the administration; cited from earlier work

Row | SMILES | volume average particle size (D50) [1] [μm] | course of serum uric acid level throughout the administration period (serum uric acid level [2]; 20 mg once daily for 7 days, solid dispersion capsules of Formulation Example 1) | course of serum uric acid level throughout the administration period (serum uric acid level [2]; 40 mg once daily for 7 days, capsules containing micronized Compound 14) | course of serum uric acid level throughout the administration period (serum uric acid level [2]; 80 mg once daily for 7 days, solid dispersion capsules of Formulation Example 1) | maximum rate of decrease in a blood uric acid level on the seventh day (serum uric acid level [2]; 80 mg once daily for 7 days, solid dispersion capsules of Formulation Example 1, about 8 hours after the administration) | maximum rate of decrease in a blood uric acid level on the first day of the administration (serum uric acid level [2]; 80 mg once daily, solid dispersion capsules of Formulation Example 1, 6 healthy adult males, at 12 hours after the administration) | maximum rate of decrease in a blood uric acid level on the first day of the administration (serum uric acid level [3])
1 | N#Cc1cc(-c2nc3c(O)ncnc3s2)ccc1Oc1ccccc1 [Compound 14, 2-(3-Cyano-4-phenoxyphenyl)-7-hydroxythiazolo[5,4-d]pyrimidine] | 2.949 | gradually decreased over time | gradually decreased over time | gradually decreased over time | about 30% | about 17% | –
2 | Cc1nc(-c2ccc(OCC(C)C)c(C#N)c2)sc1C(=O)O [febuxostat] | – | – | – | – | – | – | about 35%
